{"source": "patent US7645802B2", "about": "(Biovail Laboratories International SRL., priority 2005, dated 2010)", "key": {"[1]": {"test": "comparative forced degradation of bupropion HCl and HBr API salts, closed bottle, 40° C./75% RH", "type": "physicochemical", "description": "These studies were performed in closed bottles in a stability chamber kept at about 40 degrees C. and about 75% relative humidity. At specified times, the material in the bottles was analyzed for the presence of degradation products and % potency (% assay).\nThe samples were exposed to the above conditions in a closed bottle for few days, and then subjected to HPLC analysis.\nThe amount of the main degradation products present after treatment were compared with those amounts that were present initially.\nThe samples were analyzed after 14 and 24 days (study-1) and 10 days (study II), in a quantitative manner by direct treatment of the whole content of the bottle as per the HPLC standard test method (P05.901.10)."}, "[2]": {"test": "Solubility and other physical properties, Bupropion HBr vs Bupropion HCl"}, "Rj: Wistar (Han) rats": {"test_system": "Rj: Wistar (Han) rats", "test": "EEG trace monitoring and behavioural observations in conscious rats", "description": "The effects of the two bupropion salt forms hydrochloride and hydrobromide on central nervous system activity after intraperitoneal administration were evaluated by means of EEG trace monitoring in conscious rats. The method which detects electroencephalographic activity in conscious rats follows that described by Dürmüller et al., (2000) Vigilance-Controlled Quantified EEG in Safety Pharmacology, Current Protocols in Pharmacology Unit 10.6. The study was conducted at Porsolt & Partners Pharmacology, Research Laboratory, Z. A. des Suhards—B.P. 9, 53940 Le Genest-Saint-Isle, France.\nSubstances: The formulation excipient used was physiological saline (Laboratoire Aguettant). […] All substances were stored in a dry, dark, controlled access area and maintained at a controlled ambient temperature of about 20±3° C. The vehicle solutions were stored at about +4° C. The substances were administered in a volume of 5 ml/kg body weight. The doses of bupropion hydrochloride are expressed in mg/kg of salt. […] The substances were dissolved in physiological saline and prepared freshly at each day of experimentation.\nTest systems: The rats used were male Rj: Wistar (Han) rats, weighing from about 280 g to 324 g at the time of implantation. They were supplied by Elevage Janvier, 53940 Le Genest-Saint-Isle, France. […] Upon delivery to the laboratory, the animals were housed in groups of 5 animals maximum, in macrolon cages (44×28×19 cm) containing wood litter (Litalabo—SPPS, 95100 Argenteuil, France). The animals had free access to food (Code 113—SAFE, 89290 Augy, France) and tap water. The animal house was maintained under artificial lighting (12 hrs) from 7:00 to 19:00 in a controlled ambient temperature of about 21±3° C. and relative humidity maintained at from about 30% to about 80%. […] Except during the test sessions, the animals had free access to food (Code 113) and tap water. The animals were identified by marking the connector fixed on the animal's head with an indelible pen. Rats were sacrificed at the end of the experiments by lethal injection of pentobarbital (>100 mg/kg i.p.). Animals were not submitted to necropsy. There is no reason to expect that contaminants were present in the feed, water or bedding at levels capable of interfering with the results of the tests. No checks were performed for this particular study.\nElectrode implantation procedure: Implantation surgery was carried out under aseptic conditions. Rats, anesthetized with sodium pentobarbital (60 mg/kg i.p., plus supplementary doses of from about 5 mg/kg to about 10 mg/kg to maintain anesthesia until surgery completion) were implanted with 2 surface EEG electrodes, comprised of miniature titanium screws, placed bilaterally over the frontal-parietal cortex and 2 depth electrodes, comprised of twisted platinium-iridium wires, placed stereotaxically into the hippocampus CA3 area (Paxinos and Watson coordinates interaural: AP+5.0 mm, L±2.5 mm, V+7.0 mm). An additional screw, placed over the right occipital cortex, served as ground electrode. The electrodes were connected to small plugs and the whole assembly was secured on the skull with dental acrylate.\nApparatus: For the EEG recording, the animals were placed in rectangular Plexiglas cubicles (30×10×25 cm) mounted on treadmills. Five recording units were run in parallel. A turning commutator was attached above the centre of each cubicle, about 30 cm above walking level. On one side, it was connected via an electrically shielded multicore cable to the animal and on the other side to the signal conditioning system (Coulbourn Model V75-01). The system filters were set for all channels to high pass 1 Hz and low pass 150 Hz, respectively. The amplification levels were kept at from 1000× to 10000×. The EEG signals were acquired and processed on a PC (DELL GX620-2800) installed with a 16 channel 200 kHz/12-bit AD acquisition card (NI PCI-6023E)."}, "[3]": {"test": "forced degradation stability study of bupropion salts in vials, 40 degrees C./75% RH, HPLC assay and impurities"}, "[4]": {"conditions": "two batches of each API, 10 days"}, "[5]": {"conditions": "HCl from Erregierre, HBr from Chemi, hydrochloride"}, "[6]": {"conditions": "100 mg/kg i.p., long seizure activity"}, "[7]": {"conditions": "spiked with IPA/EtOH, closed vials, 32 days"}}, "note": "Counter-ions that a name gives are not always drawn. Marks after values point to notes of the source that are not given here.", "data": [{"smiles": "CC(NC(C)(C)C)C(=O)c1cccc(Cl)c1", "note": "(centres unmarked) [Bupropion HCl, bupropion hydrochloride]", "values": [{"measurement": "assay value, HCl versus HBr", "setting": "[1]; [4]", "value": "lower than that for the HBr salt"}, {"measurement": "solubility", "setting": "[2]; EtOH", "value": 80, "unit": "mg/mL"}, {"measurement": "pH (aq. 0.5%)", "setting": "[2]; HCl from Erregierre, HBr from Chemi", "value": 5.90}, {"measurement": "PS (Malvern) 10%", "setting": "[2]; [5]", "value": 10, "unit": "% 32 μm"}, {"measurement": "PS (Malvern) 50%", "setting": "[2]; [5]", "value": 50, "unit": "% 102 μm"}, {"measurement": "PS (Malvern) 90%", "setting": "[2]; [5]", "value": 90, "unit": "% 276 μm"}, {"measurement": "moisture content KF", "setting": "[2]; [5]", "value": 0.01, "unit": "%"}, {"measurement": "solubility", "setting": "[2]; IPA", "value": 10, "unit": "mg/mL"}, {"measurement": "solubility", "setting": "[2]; Water", "value": 270, "unit": "mg/mL"}]}, {"smiles": "Br.CC(NC(C)(C)C)C(=O)c1cccc(Cl)c1", "note": "(centres unmarked) [bupropion hydrobromide]", "values": [{"measurement": "resulting degradation products, HBr versus HCl", "setting": "[1]; 14 and 24 days (study-1)", "value": "either similar or better for the HBr salt"}, {"measurement": "level of bupropion degradation impurities, HBr versus HCl", "setting": "[1]; [4]", "value": "lower than bupropion HCl"}, {"measurement": "abnormal behavior", "setting": "Rj: Wistar (Han) rats; 60 mg/kg i.p.", "value": "One rat in the bupropion hydrobromide group had a fatal whole body clonus immediately after administration"}, {"measurement": "EEG ANALYSIS Burst cx", "setting": "Rj: Wistar (Han) rats; rat, in vivo, ip, 10 mg/kg", "value": "−"}, {"measurement": "EEG ANALYSIS Burst hipp", "setting": "Rj: Wistar (Han) rats; rat, in vivo, ip, 10 mg/kg", "value": "−"}, {"measurement": "EEG ANALYSIS Complex spike cx", "setting": "Rj: Wistar (Han) rats; rat, in vivo, ip, 10 mg/kg", "value": "−"}, {"measurement": "EEG ANALYSIS Complex spike hipp", "setting": "Rj: Wistar (Han) rats; rat, in vivo, ip, 10 mg/kg", "value": "−"}, {"measurement": "EEG ANALYSIS High amplitude fast frequency cx", "setting": "Rj: Wistar (Han) rats; rat, in vivo, ip, 10 mg/kg", "value": "−"}, {"measurement": "EEG ANALYSIS High amplitude fast frequency hipp", "setting": "Rj: Wistar (Han) rats; rat, in vivo, ip, 10 mg/kg", "value": "−"}, {"measurement": "EEG ANALYSIS High frequency burst activity cx", "setting": "Rj: Wistar (Han) rats; rat, in vivo, ip, 10 mg/kg", "value": "−"}, {"measurement": "EEG ANALYSIS High frequency burst activity hipp", "setting": "Rj: Wistar (Han) rats; rat, in vivo, ip, 10 mg/kg", "value": "−"}, {"measurement": "EEG ANALYSIS Long seizure activity cx", "setting": "Rj: Wistar (Han) rats; rat, in vivo, ip, 10 mg/kg", "value": "−"}, {"measurement": "EEG ANALYSIS Long seizure activity hipp", "setting": "Rj: Wistar (Han) rats; rat, in vivo, ip, 10 mg/kg", "value": "−"}, {"measurement": "EEG ANALYSIS Post ictual activity cx", "setting": "Rj: Wistar (Han) rats; rat, in vivo, ip, 10 mg/kg", "value": "−"}, {"measurement": "EEG ANALYSIS Post ictual activity hipp", "setting": "Rj: Wistar (Han) rats; rat, in vivo, ip, 10 mg/kg", "value": "−"}, {"measurement": "EEG ANALYSIS Repetitive isolated spike cx", "setting": "Rj: Wistar (Han) rats; rat, in vivo, ip, 10 mg/kg", "value": "−"}, {"measurement": "EEG ANALYSIS Repetitive isolated spike hipp", "setting": "Rj: Wistar (Han) rats; rat, in vivo, ip, 10 mg/kg", "value": "−"}, {"measurement": "EEG ANALYSIS Sharp waves hipp", "setting": "Rj: Wistar (Han) rats; rat, in vivo, ip, 10 mg/kg", "value": "−"}, {"measurement": "EEG ANALYSIS Short seizure activity cx", "setting": "Rj: Wistar (Han) rats; rat, in vivo, ip, 10 mg/kg", "value": "−"}, {"measurement": "EEG ANALYSIS Short seizure activity hipp", "setting": "Rj: Wistar (Han) rats; rat, in vivo, ip, 10 mg/kg", "value": "−"}, {"measurement": "EEG ANALYSIS Spike-and-waves cx", "setting": "Rj: Wistar (Han) rats; rat, in vivo, ip, 10 mg/kg", "value": "−"}, {"measurement": "EEG ANALYSIS Spike-and-waves hipp", "setting": "Rj: Wistar (Han) rats; rat, in vivo, ip, 10 mg/kg", "value": "−"}, {"measurement": "EEG ANALYSIS Sharp waves cx", "setting": "Rj: Wistar (Han) rats; rat, in vivo, ip, 30 mg/kg", "value": "−"}, {"measurement": "EEG ANALYSIS Sharp waves hipp", "setting": "Rj: Wistar (Han) rats; rat, in vivo, ip, 30 mg/kg", "value": "−"}, {"measurement": "EEG ANALYSIS Spike-and-waves hipp", "setting": "Rj: Wistar (Han) rats; rat, in vivo, ip, 30 mg/kg", "value": "−"}, {"measurement": "EEG ANALYSIS Sharp waves cx", "setting": "Rj: Wistar (Han) rats; rat, in vivo, ip, 60 mg/kg", "value": "−"}, {"measurement": "EEG ANALYSIS Sharp waves hipp", "setting": "Rj: Wistar (Han) rats; rat, in vivo, ip, 60 mg/kg", "value": "−"}, {"measurement": "EEG ANALYSIS Spike-and-waves cx", "setting": "Rj: Wistar (Han) rats; rat, in vivo, ip, 60 mg/kg", "value": "−"}, {"measurement": "EEG ANALYSIS Spike-and-waves hipp", "setting": "Rj: Wistar (Han) rats; rat, in vivo, ip, 60 mg/kg", "value": "−"}, {"measurement": "EEG ANALYSIS Sharp waves cx", "setting": "Rj: Wistar (Han) rats; rat, in vivo, ip, 100 mg/kg", "value": "−"}, {"measurement": "EEG ANALYSIS Sharp waves hipp", "setting": "Rj: Wistar (Han) rats; rat, in vivo, ip, 100 mg/kg", "value": "−"}, {"measurement": "EEG ANALYSIS Spike-and-waves cx", "setting": "Rj: Wistar (Han) rats; rat, in vivo, ip, 100 mg/kg", "value": "−"}, {"measurement": "EEG ANALYSIS Spike-and-waves hipp", "setting": "Rj: Wistar (Han) rats; rat, in vivo, ip, 100 mg/kg", "value": "−"}, {"measurement": "NUMBER OF ANIMALS WITH SEIZURE ACTIVITY", "setting": "rat; 100 mg/kg i.p., 10 rats per group, long seizure activity, HBr dose in HCl molar equivalent", "value": "4*"}, {"measurement": "DURATION OF INITIAL SEIZURE CORTEX mean ± s.e.m.", "setting": "rat; [6]", "value": "31 ± 6"}, {"measurement": "DURATION OF INITIAL SEIZURE HIPPOCAMPUS mean ± s.e.m.", "setting": "rat; [6]", "value": "23 ± 2"}, {"measurement": "dead", "setting": "rat; in vivo, ip, 100 mg/kg", "value": "#dead (1/10)."}, {"measurement": "In water, 852U77: order of impurity content", "setting": "[3]", "value": "fumarate > HBr > maleate > HCl"}, {"measurement": "In water, Total imp.: order of impurity content", "setting": "[3]", "value": "fumarate > HBr > HCl > tosylate > maleate"}, {"measurement": "order of stability (assay, % potency)", "setting": "[3]; salt plus excipients, closed vials, 20 days, 40 degrees C./75% RH", "value": "HBr>HCl≈tosylate>fumarate>maleate"}, {"measurement": "In IPA/EtOH, 3-CBZ: order of impurity content", "setting": "[3]; [7]", "value": "maleate > HBr > HCl > Fumarate"}, {"measurement": "In IPA/EtOH, 852U77: order of impurity content", "setting": "[3]; [7]", "value": "fumarate > HBr ≈HCl ≈maleate ≈tosylate"}, {"measurement": "In IPA/EtOH, Total imp.: order of impurity content", "setting": "[3]; [7]", "value": "fumarate > maleate > HBr > HCl > tosylate"}, {"measurement": "In water, 3-CBZ: order of impurity content", "setting": "[3]; spiked with water, closed vials, 32 days", "value": "HCl > HBr≈maleate≈fumarate"}]}]}
